Earlier results on one compound are cited in patent US9358210B2, “Sustained-release pellets containing tacrolimus as an active ingredient” (priority 2010, dated 2016).

Structures are written as SMILES.

Turning to `C=CC[C@@H]1/C=C(\C)C[C@H](C)C[C@H](OC)[C@H]2O[C@@](O)(C(=O)C(=O)N3CCCC[C@H]3C(=O)O[C@H](/C(C)=C/[C@@H]3CC[C@@H](O)[C@H](OC)C3)[C@H](C)[C@@H](O)CC1=O)[C@H](C)C[C@@H]2OC` [tacrolimus, 17-allyl-1,14-dihydroxy-12-[2-(4-hydroxy-3-methoxycyclohexyl)-1-methylvinyl]-23,25-dimethoxy-13,19,21,27-tetramethyl-11,28-dioxa-4-azatricyclo[22.3.1.0]octacos-18-ene-2,3,10,16-tetraone], the solubility in water was 1 to 2 µg/mL.
